Test results reported in patent US11753399B2, “Therapeutic compounds” (Gilead Sciences, Inc., priority 2018, dated 2023).

What was measured:
MT-4 cells = assay: Test B: Cytotoxicity Assay (same protocol as Test A, uninfected cells); type: cell-based; details: uninfected MT-4 cells, 5 days, CellTiter-Glo
Experimental: (§1) MT-4 cells were next mixed with HIV-IIIb at a multiplicity of infection (m.o.i.) of 0.003 for 1 hour, after which time 35 μL of virus/cell mixture (2000 cells) was immediately added to each well containing 40 μL of diluted compound. The plates were then incubated at 37° C. for 5 days. After 5 days of incubation, 25 μl of 2× concentrated CellTiter-Glo Reagent (catalog #G7571, Promega Biosciences, Inc., Madison, Wis.) was added to each well containing MT-4 cells. Cell lysis was carried out by incubating at room temperature for 10 min and then chemiluminescence was read. […] Compound cytotoxicity and the corresponding CC50 values was determined using the same protocol as described in the antiviral assay (Test A) except that uninfected cells were used.

HIV-IIIb = assay: Test A: Antiviral Assay in MT4 Cells; type: cell-based, HIV-1; details: inhibition of virus-induced cell killing, MT-4 cells, HIV-IIIb, 5 days, values normalized to 100%; for inhibition at 0.01 µM / inhibition at 0.2 µM: Human immunodeficiency virus 1, MT4, 120 h; for inhibition at 0.01 µM: read-out: % inhibition at 0.01 μM; for inhibition at 0.2 µM: read-out: % inhibition at 0.20 μM
Experimental: MT-4 cells were next mixed with HIV-IIIb at a multiplicity of infection (m.o.i.) of 0.003 for 1 hour, after which time 35 μL of virus/cell mixture (2000 cells) was immediately added to each well containing 40 μL of diluted compound. The plates were then incubated at 37° C. for 5 days. After 5 days of incubation, 25 μl of 2× concentrated CellTiter-Glo Reagent (catalog #G7571, Promega Biosciences, Inc., Madison, Wis.) was added to each well containing MT-4 cells. Cell lysis was carried out by incubating at room temperature for 10 min and then chemiluminescence was read.

[1] = Test B: Cytotoxicity Assay (same protocol as Test A, uninfected cells); type: cell-based; details: human, uninfected MT-4 cells, CellTiter-Glo
Experimental: as §1

[2] = from dose response curve at 0.01 μM (10 nM)
[3] = from dose response curve at 0.20 μM (200 nM)

| SMILES | CC50 (MT-4 cells) | inhibition at 0.01 µM (HIV-IIIb; [2]) | inhibition at 0.2 µM (HIV-IIIb; [3]) | % inhibition at 0.01 μM (HIV-IIIb; [2]) | % inhibition at 0.20 μM (HIV-IIIb; [3]) | CC50 at 5 days [1] |
| --- | --- | --- | --- | --- | --- | --- |
| CC(C)(O)c1nnc(Nc2nn(CC(F)F)c3c(-c4ccc(C#CC(C)(C)S(=O)(=O)C5CC5)nc4[C@H](Cc4cc(F)cc(F)c4)NC(=O)Cn4nc(C(F)F)c5c4C(F)(F)[C@@H]4C[C@H]54)ccc(Cl)c23)o1 [Example 24] | 9.07 µM | 100% | 100% |  |  |  |
| CC(C)(O)c1nnc(Nc2nn(CC(F)F)c3c(-c4ccc(C#CC(C)(C)S(=O)(=O)C5CC5)nc4[C@H](Cc4cc(F)cc(F)c4)NC(=O)Cn4nc(C(F)F)c5c4C(F)(F)[C@@H]4C[C@H]54)ccc(Cl)c23)o1 [Example 25] | > 57.1 µM |  |  | 100% | 100% |  |
| Cn1nc(NS(C)(=O)=O)c2c(Cl)ccc(-c3ccc(C#CC(C)(C)S(=O)(=O)C4CC4)nc3[C@H](Cc3cc(F)cc(F)c3)NC(=O)Cn3nc(C(F)F)c(Br)c3C(F)F)c21 [Example 58] |  | 95% | 95% |  |  | > 57.1 µM |
| Cn1nc(NS(C)(=O)=O)c2c(Cl)ccc(-c3ccc(C#CC(C)(C)S(=O)(=O)C4CC4)nc3[C@H](Cc3cc(F)cc(F)c3)NC(=O)Cn3nc(C(F)F)c(C4CC4)c3C(F)F)c21 [Example 59] |  | 81% | 93% |  |  | > 57.1 µM |
| Cn1nc(NS(C)(=O)=O)c2c(Cl)ccc(-c3ccc(C#CC(C)(C)S(=O)(=O)C4CC4)nc3[C@H](Cc3cc(F)cc(F)c3)NC(=O)CCn3cccn3)c21 [Example 60] |  | 100% | 100% |  |  | 19.2 µM |
| Cn1nc(NS(C)(=O)=O)c2c(Cl)ccc(-c3ccc(C#CC(C)(C)S(=O)(=O)C4CC4)nc3[C@H](Cc3cc(F)cc(F)c3)NC(=O)Cn3ncc4ccccc43)c21 [Example 61] |  | 3% | 98% |  |  | 28.4 µM |
| Cn1nc(NS(C)(=O)=O)c2c(Cl)ccc(-c3ccc(C#CC(C)(C)S(=O)(=O)C4CC4)nc3[C@H](Cc3cc(F)cc(F)c3)NC(=O)Cn3cnc4ccccc43)c21 [Example 62] |  | 56% | 93% |  |  | 30.7 µM |
| Cn1nc(NS(C)(=O)=O)c2c(Cl)ccc(-c3ccc(C#CC(C)(C)S(=O)(=O)C4CC4)nc3[C@H](Cc3cc(F)cc(F)c3)NC(=O)Cn3nnc4ccccc43)c21 [Example 63] |  | 1% | 100% |  |  | 21.8 µM |
| Cn1nc(NS(C)(=O)=O)c2c(Cl)ccc(-c3ccc(C#CC(C)(C)S(=O)(=O)C4CC4)nc3[C@H](Cc3cc(F)cc(F)c3)NC(=O)Cn3cc(C(F)(F)F)nc3C3CC3)c21 [Example 64] |  | 45% | 94% |  |  | > 50 µM |
| Cn1nc(NS(C)(=O)=O)c2c(Cl)ccc(-c3ccc(C#CC(C)(C)S(=O)(=O)C4CC4)nc3[C@H](Cc3cc(F)cc(F)c3)NC(=O)Cn3cc(C(F)(F)F)cn3)c21 [Example 65] |  | 27% | 100% |  |  | > 50 µM |
| Cn1nc(NS(C)(=O)=O)c2c(Cl)ccc(-c3ccc(C#CC(C)(C)S(=O)(=O)C4CC4)nc3[C@H](Cc3cc(F)cc(F)c3)NC(=O)Cc3ncc[nH]3)c21 [Example 66] |  | 61% | 97% |  |  | 11.7 µM |
| CCS(=O)(=O)Nc1nn(CC(F)(F)F)c2c(-c3ccc(C#CC(C)(C)S(=O)(=O)C4CC4)nc3[C@H](Cc3cc(F)cc(F)c3)NC(=O)Cn3nc(C(F)(F)F)c4c3C(F)(F)[C@@H]3C[C@H]43)ccc(Cl)c12 [Example 67] |  | 13% | 0% |  |  | > 50 µM |
| CC(C)(C#Cc1ccc(-c2ccc(Cl)c3c(NS(C)(=O)=O)nn(CC(F)(F)F)c23)c([C@H](Cc2cc(F)cc(F)c2)NC(=O)Cn2nc(C(F)(F)F)c3c2C(F)(F)[C@@H]2C[C@H]32)n1)S(=O)(=O)C1CC1 [Example 68] |  | 100% | 100% |  |  | > 50 µM |
| CC(C)(C#Cc1ccc(-c2ccc(Cl)c3c(NS(=O)(=O)C4CC4)nn(C4COC4)c23)c([C@H](Cc2cc(F)cc(F)c2)NC(=O)Cn2nc(C(F)(F)F)c3c2C(F)(F)[C@@H]2C[C@H]32)n1)S(=O)(=O)C1CC1 [Example 69] |  | 92% | 92% |  |  | > 50 µM |
